Structures can show the parent of a compound that is named as a salt. Where two headings read alike, the source gives them in different places.
Experiments:
[1] = target: T1, HO-1 (rat spleen) (Rattus norvegicus, UniProt P06762); assay: HO enzymatic activity in rat spleen microsomal fraction (CO formed from methemalbumin, gas chromatography); type: biochemical
T1 construct: Spleen microsomes were used as a source of HO-1; from tissue; host or cells: spleen microsomal fraction of adult male Sprague-Dawley rats
T1 sequence (P06762 1-289): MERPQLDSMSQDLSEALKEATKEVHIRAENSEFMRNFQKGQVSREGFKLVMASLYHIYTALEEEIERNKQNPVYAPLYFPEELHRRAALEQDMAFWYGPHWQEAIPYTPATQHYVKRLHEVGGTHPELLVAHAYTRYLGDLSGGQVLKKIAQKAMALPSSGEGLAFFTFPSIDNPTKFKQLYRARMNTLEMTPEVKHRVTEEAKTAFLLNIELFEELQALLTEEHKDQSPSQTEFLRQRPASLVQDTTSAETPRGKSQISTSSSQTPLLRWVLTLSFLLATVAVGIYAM

[2] = target: T2, HO-2 (rat brain) (Rattus norvegicus, UniProt P23711); assay: HO enzymatic activity in rat brain microsomal fraction (CO formed from methemalbumin, gas chromatography); type: biochemical
T2 construct: brain microsomes were used as a source of HO-2; from tissue; host or cells: brain microsomal fraction of adult male Sprague-Dawley rats
T2 sequence (P23711 1-315): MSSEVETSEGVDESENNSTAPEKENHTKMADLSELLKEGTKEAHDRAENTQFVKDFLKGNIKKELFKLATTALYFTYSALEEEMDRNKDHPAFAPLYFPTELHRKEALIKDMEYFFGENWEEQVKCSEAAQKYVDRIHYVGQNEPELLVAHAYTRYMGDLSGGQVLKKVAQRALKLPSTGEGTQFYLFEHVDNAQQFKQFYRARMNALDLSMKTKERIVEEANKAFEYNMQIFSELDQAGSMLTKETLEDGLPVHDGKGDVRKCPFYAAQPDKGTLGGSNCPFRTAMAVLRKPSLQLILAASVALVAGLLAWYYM

[3] = rat spleen microsomes, average ± standard deviation of replicate experiments, read-out: IC50 HO-1 (rat spleen)/μM
[4] = rat brain microsomes, average ± standard deviation of replicate experiments, read-out: IC50 HO-2 (rat brain)/μM

Structure (SMILES) | IC50 [1, 3] | IC50 [2, 4] | further results
O=C(CCc1ccccc1)Cn1nc(-c2ccccc2)nc1-c1ccccc1 [1-(3,5-Diphenyl-[1,2,4]triazol-1-yl)-4-phenyl-butan-2-one] | > 100 µM | > 100 µM | –
O=C(Cn1ccnc1)c1cccc(Br)c1 [1-(3-Bromo-phenyl)-2-(1H-imidazol-1-yl)-ethanone hydrochloride] | 2.1 ± 0.1 µM | 35 ± 3 µM | –
CSc1ncn(CC(=O)CCc2ccccc2)n1 [1-(3-Methylsulfanyl-[1,2,4]triazol-1-yl)-4-phenyl-butan-2-one] | > 100 µM | > 100 µM | –
c1ccc(CCCn2ccnc2)cc1 [1-(3-Phenyl-propyl)-1H-imidazole hydrochloride] | 14 ± 4 µM | > 100 µM | –
[O-][S+](CCCn1ccnc1)c1ccccc1 (stereo not drawn) [1-(3-benzenesulfinyl-propyl)-1H-imidazole hydrochloride] | 3.7 ± 0.4 µM | 22 ± 3 µM | –
c1ccc(OCCCn2ccnc2)cc1 [1-(3-phenoxy-propyl)-1H-imidazole hydrochloride] | 42 ± 13 µM | 206 ± 96 µM | –
c1ccc(SCCCn2ccnc2)cc1 [1-(3-phenylsulfanyl-propyl)-1H-imidazole hydrochloride] | 2.4 ± 0.2 µM | 16 ± 2 µM | –
O=C(CCc1ccccc1)Cn1cnc(Cl)c1Cl [1-(4,5-Dichloro-imidazol-1-yl)-4-phenyl-butan-2-one hydrochloride] | > 100 µM | > 100 µM | –
O=C(CCc1ccccc1)Cn1cnc(-c2ccccc2)c1-c1ccccc1 [1-(4,5-Diphenyl-imidazol-1-yl)-4-phenyl-butan-2-one hydrochloride] | 40 ± 2 µM | > 100 µM | –
c1cn(Cc2ccc(Cn3ccnc3)cc2)cn1 [1-(4-(1H-Imidazol-1-ylmethyl)benzyl)-1H-imidazole dihydrochloride] | 86 ± 30 µM | > 100 µM | –
O=C(Cn1ccnc1)c1ccc(OCc2ccccc2)cc1 [1-(4-Benzyloxy-phenyl)-2-(1H-imidazol-1-yl)-ethanone] | 11 ± 3 µM | > 100 µM | –
O=C(CCc1ccccc1)Cn1cnc(Br)c1 [1-(4-Bromo-imidazol-1-yl)-4-phenyl-butan-2-one] | > 100 µM | > 100 µM | –
O=C(Cn1cncn1)c1ccc(Br)cc1 [1-(4-Bromo-phenyl)-2-[1,2,4]triazol-1-yl-ethanone] | 2.7 ± 0.5 µM | 50 ± 24 µM | –
O=C(Cn1cncn1)c1ccc([N+](=O)[O-])cc1 [1-(4-Nitro-phenyl)-2-[1,2,4]triazol-1-yl-ethanone hydrochloride] | 19.2 ± 0.5 µM | > 100 µM | –
[O-][S+](CCCCn1ccnc1)c1ccccc1 (stereo not drawn) [1-(4-benzenesulfinyl-butyl)-1H-imidazole hydrochloride] | 18.44 ± 0.04 µM | 31 ± 5 µM | –
O=C(Cn1ccnc1)c1ccc(Cc2ccccc2)cc1 [1-(4-benzyl-phenyl)-2-imidazol-1-yl-ethanone hydrochloride] | 1.99 ± 0.05 µM | 2.3 ± 0.2 µM | –
Clc1ccc(/C(Cn2ccnc2)=N/OCc2ccc(Br)cc2)cc1 [1-(4-chloro-phenyl)-2-imidazol-1-yl-ethanone O-(4-bromo-benzyl)-oxime hydrochloride] | 8.3 ± 0.9 µM | 51 ± 26 µM | –
O/N=C(\Cn1ccnc1)c1ccc(Cl)cc1 [1-(4-chloro-phenyl)-2-imidazol-1-yl-ethanone oxime] | 46 ± 8 µM | > 100 µM | –
O=C(Cn1ccnc1)c1ccc(F)cc1 [1-(4-fluoro-phenyl)-2-imidazol-1-yl-ethanone hydrochloride] | 2.1 ± 0.1 µM | 35 ± 3 µM | –
c1ccc(OCCCCn2ccnc2)cc1 [1-(4-phenoxy-butyl)-1H-imidazole hydrochloride] | 4 ± 1 µM | 4.6 ± 0.5 µM | –
c1ccc(CCCCn2ccnc2)cc1 [1-(4-phenyl-butyl)-1H-imidazole hydrochloride] | 3.5 ± 0.9 µM | > 100 µM | –
c1ccc(SCCCCn2ccnc2)cc1 [1-(4-phenylsulfanyl-butyl)-1H-imidazole hydrochloride] | 1.2 ± 0.2 µM | 5 ± 3 µM | –
O=C(Cn1ccnc1)c1ccc(-c2ccc(Br)cc2)cc1 [1-(4′-bromo-biphenyl-4-yl)-2-imidazol-1-yl-ethanone] | 1.5 ± 0.5 µM | 0.43 ± 0.07 µM | –
O=C(Cn1cncn1)c1ccc2c(c1)CCCC2 [1-(5,6,7,8-tetrahydro-naphthalen-2-yl)-2-[1,2,4]triazol-1-yl-ethanone] | 0.24 ± 0.04 µM | 4 ± 1 µM | –
O=C(CCc1ccccc1)Cn1cncc1Br [1-(5-Bromo-1H-imidazol-1-yl)-4-phenyl-2-butanone] | 22 ± 2 µM | > 100 µM | –
CSc1ncnn1CC(=O)CCc1ccccc1 [1-(5-Methylsulfanyl-[1,2,4]triazol-1-yl)-4-phenyl-butan-2-one hydrochloride] | > 100 µM | > 100 µM | –
Cl.c1cn(CC2OCCO2)cn1 [1-((1,3-Dioxolan-2-yl)methyl)-1H-imidazole hydrochloride] | – | – | IC50 HO-1 (rat spleen)/μM ([1]; rat spleen microsomes, average ± standard deviation of replicate experiments): Inactive; IC50 HO-2 (rat brain)/μM ([2]; rat brain microsomes, average ± standard deviation of replicate experiments): Inactive
c1ccc(Cn2ccnc2)cc1 [1-Benzyl-1H-imidazole hydrochloride] | – | – | IC50 [1]: 44 ± 9 µM; IC50 [2]: > 100 µM
c1ccc(-n2ccnc2)cc1 [1-Phenyl-1H-imidazole hydrochloride] | > 100 µM | > 100 µM | –

Further lines, with some results ahead:

IC50 [1, 3] | IC50 [2, 4] | Structure (SMILES) | further results
> 100 µM | > 100 µM | CS(=O)(=O)c1nnnn1CC(=O)CCc1ccccc1 [1-(5-Methanesulfonyl-tetrazol-1-yl)-4-phenyl-butan-2-one] | –
> 100 µM | > 100 µM | CS(=O)(=O)c1nnn(CC(=O)CCc2ccccc2)n1 [1-(5-Methanesulfonyl-tetrazol-2-yl)-4-phenyl-butan-2-one] | –
> 100 µM | > 100 µM | CSc1nnnn1CC(=O)CCc1ccccc1 [1-(5-Methylsulfanyl-tetrazol-1-yl)-4-phenyl-butan-2-one] | –
> 100 µM | > 100 µM | CSc1nnn(CC(=O)CCc2ccccc2)n1 [1-(5-Methylsulfanyl-tetrazol-2-yl)-4-phenyl-butan-2-one] | –
2.8 ± 0.5 µM | 20 ± 15 µM | c1ccc(CCCCCn2ccnc2)cc1 [1-(5-phenyl-pentyl)-1H-imidazole hydrochloride] | –
> 100 µM | > 100 µM | O=C(CCc1ccccc1)Cn1nc2ccccc2n1 [1-Benzotriazol-2-yl-4-phenyl-butan-2-one] | –
0.74 ± 0.05 µM | 7 ± 4 µM | O=C(Cn1cncn1)c1ccc(-c2ccccc2)cc1 [1-Biphenyl-4-yl-2-[1,2,4]triazol-1-yl-ethanone] | –
0.163 ± 0.009 µM | 0.9 ± 0.2 µM | CC(C)c1ccc(CCC(=O)Cn2ccnc2)cc1 [1-Imidazol-1-yl-4-(4-isopropyl-phenyl)-butan-2-one hydrochloride] | –
0.76 ± 0.01 µM | 3.7 ± 0.1 µM | Cc1ccc(CCC(=O)Cn2ccnc2)cc1 [1-Imidazol-1-yl-4-(4-methylphenyl)butan-2-one hydrochloride] | –
0.7 ± 0.1 µM | 42 ± 10 µM | O=C(Cn1cncn1)c1ccc2ccccc2c1 [1-Naphthalen-2-yl-2-[1,2,4]triazol-1-yl-ethanone hydrochloride] | –
72 ± 11 µM | > 100 µM | c1ccc(CCn2ccnc2)cc1 [1-Phenethyl-1H-imidazole] | –
29 ± 14 µM | > 100 µM | Clc1ccc(C2(Cn3ccnc3)OCCO2)c(Cl)c1 [1-[2-(2,4-dichloro-phenyl)-[1,3]dioxolan-2-ylmethyl]-1H-imidazole hydrochloride] | –
8 ± 2 µM | > 100 µM | Clc1ccc(C2(Cn3ccnc3)OCCO2)cc1Cl [1-[2-(3,4-dichloro-phenyl)-[1,3]dioxolan-2-ylmethyl]-1H-imidazole] | –
4 ± 0.7 µM | > 100 µM | Brc1cccc(C2(Cn3ccnc3)OCCO2)c1 [1-[2-(3-bromo-phenyl)-[1,3]dioxolan-2-ylmethyl]-1H-imidazole hydrochloride] | –
4.98 ± 0.08 µM | > 100 µM | c1ccc(Cc2ccc(C3(Cn4ccnc4)OCCO3)cc2)cc1 [1-[2-(4-benzyl-phenyl)-[1,3]dioxolan-2-ylmethyl]-1H-imidazole hydrochloride] | –
12 ± 2 µM | > 100 µM | Brc1ccc(C2(Cn3ccnc3)OCCO2)cc1 [1-[2-(4-bromo-phenyl)-[1,3]dioxolan-2-ylmethyl]-1H-imidazole hydrochloride] | –
68.7 ± 0.6 µM | > 100 µM | Clc1ccc(C2(Cn3cncn3)OCCO2)cc1 [1-[2-(4-chloro-phenyl)-[1,3]dioxolan-2-ylmethyl]-1H-[1,2,4]triazole] | –
19 ± 3 µM | > 100 µM | Clc1ccc(C2(Cn3ccnc3)OCCO2)cc1 [1-[2-(4-chloro-phenyl)-[1,3]dioxolan-2-ylmethyl]-1H-imidazole hydrochloride] | –
0.38 ± 0.09 µM | > 100 µM | FC(F)(F)c1ccc(CCCCn2ccnc2)cc1 [1-[4-(4-(Trifluoromethyl)phenyl)butyl]-1H-imidazole hydrochloride] | –
